Earlier results on one substance are cited in patent US8603452B1, “Method of preventing biofouling using an anti-fouling bio-hydrogel composition” (University of South Florida, priority 2007, dated 2013).

One data set concerns biofouling. To be noted: hydrogel coatings containing BAC, marine environment.

Where two headings read alike, the source gives them in different places.

For benzalkonium chloride [BAC], the “prevention of the development of biofouling (duration)” value in the data set with biofouling is “up to 12 weeks”. The diffusion coefficient by setting is: (loss of BAC from hydrogel film, period from 12 to 50 hours, 13° C., freshwater) 7.3×10^−8 cm^2 s^−1; (rate of loss of the residual BAC from hydrogel film, 15° C.) 5.7×10^−10 cm^2 s^−1.
